Earlier results in patent publication US6599527B1, “Preparation of pharmaceutical compositions” (Phares Pharmaceutical Research N.V., priority 1997, dated 2003).

Conditions: in vivo

fraction entering the GI tract that is absorbed: Over 90%
Substance: phosphatidylcholine [phosphatidylcholine (PC)]
